Source: ChEMBL document CHEMBL1156198 (J Med Chem, 2010)

Experiments:
[1] = Oral bioavailability in CD1 mouse at 10 mg/kg; assay type: ADME, organism-based; conditions: in vivo
[2] = Cmax in cynomolgus monkey at […], po; assay type: ADME, organism-based, Macaca fascicularis; set-up: dose 2.5 mg/kg, route oral; conditions: in vivo
[3] = Half life in iv dosed Beagle dog; assay type: ADME, organism-based, Canis lupus familiaris; conditions: in vivo
[4] = Terminal phase volume of distribution in cynomolgus monkey; assay type: ADME, organism-based, Macaca fascicularis; conditions: in vivo, read-out: Vbeta
[5] = AUC in CD1 mouse at 10 mg/kg, po; assay type: ADME, organism-based; set-up: dose 10 mg/kg, route oral; conditions: plasma
[6] = AUC in CD1 mouse plasma at 30 mg/kg, po; assay type: ADME, organism-based; set-up: dose 30 mg/kg, route oral
[7] = AUC in CD1 mouse brain at 30 mg/kg, po; assay type: ADME, organism-based; set-up: dose 30 mg/kg, route oral
[8] = Clearance in cynomolgus monkey; assay type: ADME, organism-based, Macaca fascicularis; conditions: in vivo
[9] = AUC in cynomolgus monkey at […], po; assay type: ADME, organism-based, Macaca fascicularis; set-up: dose 2.5 mg/kg, route oral; conditions: plasma
[10] = Half life in iv dosed Sprague-Dawley rat; assay type: ADME, organism-based; conditions: in vivo
[11] = Half life in iv dosed CD1 mouse; assay type: ADME, organism-based; conditions: in vivo
[12] = Terminal phase volume of distribution in CD1 mouse; assay type: ADME, organism-based; conditions: in vivo, read-out: Vbeta
[13] = Oral bioavailability in cynomolgus monkey at […]; assay type: ADME, organism-based, Macaca fascicularis; conditions: in vivo
[14] = Terminal phase volume of distribution in Sprague-Dawley rat; assay type: ADME, organism-based; conditions: in vivo, read-out: Vbeta
[15] = Cmax in Sprague-Dawley rat at 5 mg/kg, po; assay type: ADME, organism-based; set-up: dose 5 mg/kg, route oral; conditions: in vivo
[16] = Oral bioavailability in Beagle dog at […]; assay type: ADME, organism-based, Canis lupus familiaris; conditions: in vivo
[17] = Cmax in CD1 mouse at 10 mg/kg, po; assay type: ADME, organism-based; set-up: dose 10 mg/kg, route oral; conditions: in vivo
[18] = Clearance in Beagle dog; assay type: ADME, organism-based, Canis lupus familiaris; conditions: in vivo
[19] = AUC in Sprague-Dawley rat at 5 mg/kg, po; assay type: ADME, organism-based; set-up: dose 5 mg/kg, route oral; conditions: plasma
[20] = Cmax in Beagle dog at […], po; assay type: ADME, organism-based, Canis lupus familiaris; set-up: dose 2.5 mg/kg, route oral; conditions: in vivo
[21] = Oral bioavailability in Sprague-Dawley rat at 5 mg/kg; assay type: ADME, organism-based; conditions: in vivo
[22] = AUC in Beagle dog at […], po; assay type: ADME, organism-based, Canis lupus familiaris; set-up: dose 2.5 mg/kg, route oral; conditions: plasma
[23] = Half life in iv dosed cynomolgus monkey; assay type: ADME, organism-based, Macaca fascicularis; conditions: in vivo
[24] = Clearance in Sprague-Dawley rat; assay type: ADME, organism-based; conditions: in vivo
[25] = Clearance in CD1 mouse; assay type: ADME, organism-based; conditions: in vivo
[26] = Terminal phase volume of distribution in Beagle dog; assay type: ADME, organism-based, Canis lupus familiaris; conditions: in vivo, read-out: Vbeta
[27] = Ratio of drug level in plasma to brain of CD1 mouse
[28] = Drug level in mouse B16F10 transplanted TMZ-treated C57BL/6 mouse plasma […] at 25 mg/kg/day, po administered from day 6 to 10 post transplantation measured after 6 hrs of final dose in presence of TMZ; assay type: ADME, organism-based, C57BL6; set-up: route oral
[29] = Drug level in mouse B16F10 cells transplanted in C57BL/6 mouse at 25 mg/kg/day, po administered from day 6 to 10 post transplantation measured after 6 hrs of final dose; assay type: ADME, organism-based, C57BL6, B16-F10; set-up: route oral; conditions: B16F10 tumour (neoplasm)
[30] = Drug level in mouse B16F10 transplanted C57BL/6 mouse plasma at 25 mg/kg/day, po administered from day 6 to 10 post transplantation measured after 6 hrs of final dose; assay type: ADME, organism-based, C57BL6; set-up: route oral

Row | bioavailability [1] [%] | Cmax [2] [ng/mL] | half-life [3] [h] | Vd [4] [L/kg] | AUC [5] [ng·h/mL] | AUC [6] [ng·h/mL] | AUC [7] [ng·h/mL] | clearance [8] [mL/min/kg] | AUC [9] [ng·h/mL] | half-life [10] [h] | half-life [11] [h] | Vd [12] [L/kg] | bioavailability [13] [%] | Vd [14] [L/kg] | Cmax [15] [ng/mL] | bioavailability [16] [%] | Cmax [17] [ng/mL] | clearance [18] [mL/min/kg] | AUC [19] [ng·h/mL] | clearance [25] [mL/min/kg] | SMILES | further results
1 | 63 | 100 | 2 | 15 | 1700 | 9900 | 9100 | 36.7 | 750 | 4.5 | 1.3 | 6.6 | 61 | 14 | 200 | 39 | 500 | 56.7 | 1800 | 60 | NC(=O)c1cccc2[nH]c(-c3ccc([C@@H]4CCCCN4)cc3F)nc12 | Cmax [20]: 100 ng/mL; bioavailability [21]: 80%; AUC [22]: 300 ng·h/mL; half-life [23]: 5 h; clearance [24]: 38.3 mL/min/kg; Vd [26]: 9.3 L/kg
2 | 100 |  |  |  | 1600 | 5800 | 6300 |  |  |  | 1.4 | 15 |  |  |  |  | 300 |  |  | 122 | NC(=O)c1cccc2[nH]c(-c3ccc([C@H]4CCCCN4)cc3F)nc12 | 
3 | 36 | 30 | 1.7 | 9.2 | 1200 | 9800 | 4200 | 68.3 | 200 | 1.9 | 0.8 | 3.3 | 34 | 4.1 | 300 | 72 | 600 | 28.3 | 1700 | 48.3 | NC(=O)c1cccc2[nH]c(-c3ccc([C@@H]4CCCN4)cc3F)nc12 | Kp [27]: 2; concentration at 6 h [28]: 380 ng/mL; concentration at 6 h [29]: 17200 ng/mL; Cmax [20]: 500 ng/mL; concentration at 6 h [30]: 220 ng/mL; bioavailability [21]: 55%; AUC [22]: 1100 ng·h/mL; half-life [23]: 1.8 h; clearance [24]: 28.3 mL/min/kg; Vd [26]: 3.6 L/kg
4 | 36 |  |  |  | 1000 | 4200 | 1800 |  |  |  | 0.9 | 4.6 |  |  |  |  | 500 |  |  | 60 | NC(=O)c1cccc2[nH]c(-c3ccc([C@H]4CCCN4)cc3F)nc12 | Kp [27]: 2
